Results: the supplement of paper PMC10307832

What was measured:
Assay in all cases: relative viability (nuclei count vs DMSO), 5 days (fraction); higher = more cells survive
Quizartinib + Trametinib = compound: CC(C)(C)c1cc(NC(=O)Nc2ccc(-c3cn4c(n3)sc3cc(OCCN5CCOCC5)ccc34)cc2)no1 [Quizartinib] + CC(=O)Nc1cccc(-n2c(=O)n(C3CC3)c(=O)c3c(Nc4ccc(I)cc4F)n(C)c(=O)c(C)c32)c1 [Trametinib] (partner 0.02 µM)
Summary of the method: (§1)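 Lung cancer cell lines were seeded in 1536-well plates and dosed by pin tool the next day, with either a single drug or a fixed anchor-drug dose combined with five library-drug doses (not always all listed) spaced in √10 steps. Five days later, one step fixed the cells and stained their nuclei (final 0.05% Triton X-100, 1% formaldehyde, 1 ug/ml Hoechst), and nuclei were counted on 4× images. Relative viability is the nuclei count in treated wells divided by the count in vehicle wells, and each value is the median of duplicate plates.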

Quizartinib + Luminespib = compound: CC(C)(C)c1cc(NC(=O)Nc2ccc(-c3cn4c(n3)sc3cc(OCCN5CCOCC5)ccc34)cc2)no1 [Quizartinib] + CCNC(=O)c1noc(-c2cc(C(C)C)c(O)cc2O)c1-c1ccc(CN2CCOCC2)cc1 [Luminespib] (partner 0.01 µM)
Summary of the method: as §1

YM155 + Olaparib = compound: COCC[n+]1c2c(n(Cc3cnccn3)c1C)C(=O)c1ccccc1C2=O [YM155] + O=C(c1cc(Cc2n[nH]c(=O)c3ccccc23)ccc1F)N1CCN(C(=O)C2CC2)CC1 [Olaparib] (partner 8 µM)
Summary of the method: as §1

YM155 + Pictilisib = compound: COCC[n+]1c2c(n(Cc3cnccn3)c1C)C(=O)c1ccccc1C2=O [YM155] + CS(=O)(=O)N1CCN(Cc2cc3nc(-c4cccc5[nH]ncc45)nc(N4CCOCC4)c3s2)CC1 [Pictilisib] (partner 1 µM)
Summary of the method: as §1

Row | Cell Line | relative viability (Quizartinib + Trametinib; first compound 0.001 µM) | relative viability (Quizartinib + Trametinib; first compound 0.003162 µM) | relative viability (Quizartinib + Trametinib; first compound 0.01 µM) | relative viability (Quizartinib + Trametinib; first compound 0.03162 µM) | relative viability (Quizartinib + Trametinib; first compound 0.1 µM) | relative viability (Quizartinib + Luminespib; first compound 0.001 µM) | relative viability (Quizartinib + Luminespib; first compound 0.003162 µM) | relative viability (Quizartinib + Luminespib; first compound 0.01 µM) | relative viability (Quizartinib + Luminespib; first compound 0.03162 µM) | relative viability (Quizartinib + Luminespib; first compound 0.1 µM) | relative viability (YM155 + Olaparib; first compound 0.002 µM) | relative viability (YM155 + Olaparib; first compound 0.006325 µM) | relative viability (YM155 + Olaparib; first compound 0.02 µM) | relative viability (YM155 + Olaparib; first compound 0.06325 µM) | relative viability (YM155 + Pictilisib; first compound 0.006325 µM) | relative viability (YM155 + Pictilisib; first compound 0.02 µM) | relative viability (YM155 + Pictilisib; first compound 0.06325 µM) | relative viability (YM155 + Pictilisib; first compound 0.002 µM)
1 | NCI-H2342 | 0.799 | 0.83 | 0.884 | 0.9 | 0.764 | 0.807 | 0.752 | 0.696 | 0.759 | 0.762 | 0.356 | 0.386 | 0.473 | 0.445 | – | – | – | –
2 | CAL-12T | 0.371 | 0.371 | 0.345 | 0.271 | 0.352 | 0.456 | 0.373 | 0.638 | 0.357 | 0.363 | 0.782 | 0.735 | 0.625 | 0.331 | 0.566 | 0.557 | 0.392 | –
3 | NCI-H1395 | 0.842 | 0.924 | 0.979 | 1.03 | 1.13 | 0.68 | 0.52 | 0.841 | 0.71 | 0.69 | 0.489 | 0.457 | 0.46 | 0.456 | 0.546 | 0.622 | 0.673 | 0.587
4 | NCI-H1299 | – | – | – | – | – | – | – | – | – | – | 1 | 0.998 | 0.971 | 0.875 | 0.803 | 0.845 | 0.516 | 0.653
5 | NCI-H1703 | – | – | – | – | – | – | – | – | – | – | 0.499 | 0.403 | 0.346 | 0.387 | 0.232 | 0.248 | 0.116 | 0.26
6 | HCC-15 | 0.403 | 0.387 | 0.409 | 0.326 | 0.364 | – | 0.281 | 0.197 | 0.346 | 0.33 | 0.668 | 0.763 | 0.696 | 0.666 | 0.687 | 0.723 | 0.614 | 0.612
7 | SW 900 | 0.769 | 0.943 | 0.843 | 0.899 | 0.803 | 0.159 | 0.188 | – | 0.153 | 0.161 | – | 0.788 | 0.848 | 0.808 | – | – | – | –
8 | NCI-H661 | 0.575 | 0.533 | 0.554 | 0.552 | 0.525 | 0.921 | 0.899 | 0.929 | 0.905 | 0.9 | 0.727 | 0.686 | 0.739 | 0.41 | 0.422 | 0.492 | 0.453 | 0.385
9 | NCI-H647 | 0.43 | 0.387 | 0.508 | 0.434 | 0.396 | 0.174 | 0.155 | 0.213 | 0.327 | 0.189 | 0.506 | 0.64 | 0.516 | 0.295 | 0.345 | 0.399 | 0.213 | 0.352
10 | H3255 | – | 0.561 | 0.653 | 0.637 | 0.663 | 0.788 | 0.857 | 0.966 | 0.971 | 0.875 | 0.577 | 0.581 | 0.578 | 0.508 | 0.5 | 0.477 | 0.424 | 0.483
11 | NCI-H2405 | 0.623 | 0.621 | 0.599 | 0.57 | 0.691 | 0.641 | 0.747 | 0.562 | 0.75 | 0.724 | 0.753 | 0.771 | 0.637 | 0.397 | 0.316 | 0.395 | 0.312 | 0.407
12 | NCI-H1666 | 0.856 | 0.746 | 0.888 | 0.79 | 0.772 | 0.977 | 1.05 | 1.02 | 0.789 | 1.03 | 0.754 | 0.741 | 0.769 | 0.679 | – | 0.404 | 0.484 | 0.455
13 | NCI-H650 | 0.94 | 0.938 | 0.96 | 0.923 | 1.06 | 0.7 | 0.762 | 0.91 | 0.68 | 0.718 | 0.429 | 0.345 | 0.409 | 0.377 | 0.843 | 0.953 | 0.683 | 0.88
14 | COR-L23 | 0.518 | 0.552 | 0.595 | 0.479 | 0.543 | 0.653 | 0.613 | 0.773 | 0.439 | 0.668 | 0.322 | 0.298 | 0.187 | 0.147 | 0.636 | 0.408 | 0.175 | 0.692
15 | NCI-H1734 | 0.604 | 0.64 | 0.78 | 0.571 | 0.698 | 0.16 | 0.257 | 0.188 | 0.178 | 0.197 | 0.53 | 0.607 | 0.656 | 0.63 | 0.454 | 0.491 | 0.533 | 0.414
16 | UMC-11 | 0.417 | 0.722 | 0.714 | 0.728 | 0.644 | – | 0.954 | 1.13 | 1.02 | 1.14 | 0.389 | 0.374 | 0.595 | 0.386 | 0.863 | 0.824 | 0.787 | 0.68
17 | NCI-H596 | 0.794 | 0.695 | 0.805 | 0.77 | 0.8 | 0.922 | 0.884 | 1.02 | 0.852 | 0.888 | 0.719 | 0.669 | 0.697 | 0.622 | 0.387 | 0.378 | 0.431 | –
18 | NCI-H2228 | 0.513 | 0.593 | 0.484 | 0.436 | 0.511 | 0.176 | 0.153 | 0.139 | 0.214 | 0.159 | 0.67 | 0.597 | 0.809 | 0.581 | 0.278 | 0.384 | 0.388 | 0.338
19 | EPLC-272H | 0.291 | 0.254 | 0.241 | 0.283 | 0.304 | 0.439 | 0.418 | 0.44 | 0.399 | 0.168 | 0.825 | 0.891 | 0.722 | 0.811 | 0.268 | 0.286 | 0.328 | 0.307
